Patent US20180346731A1, “Formation of Stable Pyranoanthocyanins, and Uses Thereof as Sources of Natural Color” (Ohio State Innovation Foundation, priority 2017, published 2018)

Tests used:
Type in all cases: physicochemical
[1] = UV-Vis spectra of anthocyanin isolates treated with pyruvic acid, 31 days storage; details: for decrease in maximum absorbance: 500 μM, pyruvic acid ×100 M ratio, pH 2.5, 25° C., after 31 days
Procedure: (§1) Prior to dilution, the concentrations of the isolated pigment extracts were determined by the pH differential method for subsequent dilution to known concentrations. The isolates were then diluted to 500 μM (expressed as Cyanidin-3-glucoside equivalents) in pH 2.5 deionized water (previously adjusted with HCl) which contained 0.1% potassium sorbate (w/v) and 0.1% sodium benzoate (w/v) to function as preservative agents during storage. A pH of 2.5 was selected as a compromise of several variables: the flavylium form was predominant, the effect of pKh was minimized, and it is a relevant pH for wines. It has been reported that the pKh's of cy3 gal, cy3xylgal, and cy3xylglugal ranges from 3.01 to 3.26. Working at pH 2.5 largely avoided the effect of different equilibrium forms while also maintaining a pH that is similar to that of wines where these compounds are commonly formed. Control samples of each isolate were prepared and contained no pyruvic acid. For treatments containing pyruvic acid, a previously diluted pyruvic acid standard (pyruvic acid in the same pH 2.5 water containing preservatives) was added to obtain concentrations 100× the molar ratio of anthocyanins (50 mM of pyruvic acid). All treatments were brought to the same final volume by the addition of more pH 2.5 water. Samples were filtered through a 0.2 μm membrane into 1.5 mL glass HPLC vials. Vials were capped and stored in an incubator in the dark at 25° C. for a 31 day duration (Fisher Scientific, Waltham, Mass., U.S.). All treatments were prepared in triplicate.
Absorbance spectra of anthocyanin isolates subjected to pyruvic acid treatment was collected using a SpectraMax 190 microplate reader (Molecular Devices, Sunnyvale, Calif., U.S.). Sample aliquots (75 μL) were loaded in a 96-well plate (poly-D-lysine coated polystyrene). Samples were evaluated from 380 to 780 nm in 1 nm intervals. The blank consisted of the same acidified pH 2.5 water solution used to dilute pigment samples. Spectra were collected on day 0, 7, 14, and 31. Spectrophotometric data of the samples was used to correlate with pyranoanthocyanins formation.

[2] = Colorimetry (CIEL*c*h*, ΔE2000) of anthocyanin isolates treated with pyruvic acid, 31 days storage; details: for Δc* / ΔL*: day 0 to day 31; for total color change (ΔE): day 0 vs day 31, Delta E2000; for increase in hue angle: over 31 days
Procedure: as §1
Colorimetric data of samples was calculated from spectra of samples collected from the plate reader with ColorBySpectra. Absorbance data was obtained and conversion to color values was achieved using the following settings: regular transmission, D65 illuminant, and 10° observer angle. Values reported are in the CIEL*c*h* scale. After storage for 31 days, the mathematical differences in color (ΔE) were calculated according to the CIE-L*a*b* Delta E2000 equation. Colorimetric data of the samples containing pyruvic acid was used to correlate with pyranoanthocyanins formation. Spectral absorbance data of the peaks of the anthocyanins and their respective pyranoanthocyanins were also collected from the PDA during uHPLC analyses and converted to colorimetric data using ColorBySpectra under the settings described above. The spectra was obtained from the time of elution of the target compound and then standardized to an absorbance of 1.0 at λvis-max.

[3] = Anthocyanin survival of control treatments at pH 2.5 (uHPLC AUC 500-520 nm); details: pH 2.5 acidified water, no pyruvic acid, 25° C., day 31
Procedure: FIG. 10: Pyranoanthocyanin yield for anthocyanins (500 μM) subjected to pyruvic acid treatment (×100 M ratio) and anthocyanin survival of control treatments at pH 2.5 acidified water at day 7, 14, and 31. Yield defined as (AUC500-520 nm of PACN at tn/AUC500-520 nm of ACN @t0)*100. Survival defined as (AUC500-520 nm of ACN at tn/AUC500-520 nm of ACN @ t0)*100. Values shown are means (n=3) and bars represent standard deviation.
A uHPLC system (Shimadzu Nexera-i LC-2040C, Maryland, U.S.) coupled with tandem MS (Shimadzu LCMS-8040, Maryland, U.S.) was used in evaluating initial anthocyanin purity and monitoring changes in anthocyanins with and without pyruvic acid treatment over time. A 0.4 mL/min flow rate was used on a Pinnacle DB (Restek Corporation, Bellefonte, Pa.) C18 Column (1.9 μm particle size, 50×2.1 mm length). The column oven was set at 40° C. The following gradient of solvent A (4.5% formic acid) and B (100% acetonitrile) was used: 0% B for the first minute, ramped to 15% B by 10 min. This method was effective for separation of the formed pyranoanthocyanin from anthocyanin for all isolates except cy3rut which coeluted with the formed pyranoanthocyanin. This was observed through MS-MS data. […]
Quantification of pigments was conducted on day 0, 3, 7, 14, and 31 using a standard curve of cyanidin-3-glucoside (Sigma Aldrich, St. Louis, Mo., U.S.) run under the same conditions used for isolates. Molar absorptivities of anthocyanins and carboxypyranoanthocyanidins have been reported as being relatively similar and were thought to provide a basis of confidence in using AUC500-520 nm as a quantitative measure of pyranoanthocyanin yield.
Prior to dilution, the concentrations of the isolated pigment extracts were determined by the pH differential method for subsequent dilution to known concentrations. The isolates were then diluted to 500 μM (expressed as Cyanidin-3-glucoside equivalents) in pH 2.5 deionized water (previously adjusted with HCl) which contained 0.1% potassium sorbate (w/v) and 0.1% sodium benzoate (w/v) to function as preservative agents during storage. […]

| Structure (SMILES) | decrease in maximum absorbance [1] | total color change (ΔE) [2] | also measured |
| --- | --- | --- | --- |
| C[C@@H]1O[C@@H](OC[C@H]2O[C@@H](Oc3cc4c(O)cc(O)cc4[o+]c3-c3ccc(O)c(O)c3)[C@H](O)[C@@H](O)[C@@H]2O)[C@H](O)[C@H](O)[C@H]1O [cy3rut, cyanidin-3-rutinoside] | 30% | 4.9 | Δc* [2]: −9.7; increase in hue angle [2]: 1.1 ° |
| OC[C@H]1O[C@@H](Oc2cc(O)cc3[o+]c(-c4ccc(O)c(O)c4)c(O[C@@H]4O[C@H](CO)[C@@H](O)[C@H](O)[C@H]4O[C@@H]4O[C@H](CO)[C@@H](O)[C@H](O)[C@H]4O)cc23)[C@H](O)[C@@H](O)[C@@H]1O [cy3soph5glu, cyanidin-3-sophoroside-5-glucoside] |  | 9.7 | initial L* ([2]; pH 2.5, day 0): 87.5 |
| OC[C@H]1O[C@@H](Oc2cc3c(O)cc(O)cc3[o+]c2-c2ccc(O)c(O)c2)[C@H](O[C@@H]2OC[C@@H](O)[C@H](O)[C@H]2O)[C@@H](O)[C@H]1O [cy3xylgal, cyanidin-3-(xylosyl)galactoside] |  | 7.8 |  |
| OC[C@H]1O[C@@H](OC[C@H]2O[C@@H](Oc3cc4c(O)cc(O)cc4[o+]c3-c3ccc(O)c(O)c3)[C@H](O)[C@@H](O)[C@H]2O)[C@H](O)[C@@H](O)[C@@H]1O [cy3glugal, cyanidin-3-(glucosyl)galactoside] | 26% | 3.6 | ΔL* [2]: 1.8; increase in hue angle [2]: 0.5 ° |
| Oc1cc(O)c2cc(O[C@@H]3OC[C@H](O)[C@H](O)[C@H]3O)c(-c3ccc(O)c(O)c3)[o+]c2c1 [cy3ara, cyanidin-3-arabinoside] | 71% | 16.4 | anthocyanin survival of control treatment [3]: 66%; shift of λvis-max of solution ([1]; pyruvic acid treated, pH 2.5, by day 31): bathochromic shift; ΔL* [2]: 10.2; Δc* [2]: −42.5 |
| OC[C@H]1O[C@@H](Oc2cc3c(O)cc(O)cc3[o+]c2-c2ccc(O)c(O)c2)[C@H](O)[C@@H](O)[C@@H]1O [cy3glu, cyanidin-3-glucoside] |  | 7.2 | anthocyanin survival of control treatment [3]: 49% |
| OCC1O[C@@H](Oc2cc3c(O)cc(O)cc3[o+]c2-c2ccc(O)c(O)c2)C(O[C@@H]2OC(CO)[C@@H](O)C(O)[C@H]2O)C(O)[C@@H]1O (stereo partly drawn) [cy3soph, cyanidin-3-sophoroside] |  | 9.2 |  |
| OC[C@H]1O[C@@H](OC[C@H]2O[C@@H](Oc3cc4c(O)cc(O)cc4[o+]c3-c3ccc(O)c(O)c3)[C@H](O[C@@H]3OC[C@@H](O)[C@H](O)[C@H]3O)[C@@H](O)[C@H]2O)[C@H](O)[C@@H](O)[C@@H]1O [cy3xylglugal, cyanidin-3-(xylosylglucosyl) galactoside] |  | 8.3 |  |
